≈ marks a conversion by molar mass, not a printed value.

The first test concerns Enterobacter cloacae 3MRGN (clinical bronchial aspirate isolate). Kind of test: MIC 50, broth micro-dilution, clinical isolate. In kind it is cell-based. As to conditions: E. Cloacae clinical isolate. An excerpt:
3.2 Against Selected Bacteria of the ESKAPE Panel and Enterococcus faecalis (DSM Strains)
Tested reference compounds. Amikacin sulfate (Cat. No. 01693, Chem-Impex), Gentamicin sulfate (Cat. No. G4918, Sigma Aldrich).
Microbial strains. Enterococcus faecalis DSM 2570, Klebsiella pneumoniae DSM 26371, Acinetobacter baumannii DSM 105126, Enterobacter cloacae 3MRGN (clinical bronchial aspirate isolate).
Culture media and equipment. BBL™ Mueller Hinton Broth 2 (Lot. BCBW1143, Cat. No. 70192, Sigma); Trypcase Soy Blood-agar plates (Cat. No. 43001, Biomérieux); Cryoinstant (contains 15% glycerol; Cat. No. 822070ZA, VWR International); GasPak™ EZ Standard Incubation Container (Cat. No. 260671, Becton Dickinson); GasPak™ EZ Campy Container System Sachets (Cat. No. 260680, Becton Dickinson); 96-well deep well plate, 1 mL (Cat. No. 0030506.200, Eppendorf); Plate lid (Cat. No. 0030131.525, Eppendorf); 96-well plate, F-bottom (Cat. No. 260860, Nunc); Incubator (Sartorius Certomat BS-1); Laminar flow (Heraeus HS12); UV/VIS meter (Perkin Elmer Lambda Bio+); Platereader (Tecan Infinite M200 Pro).
Compound preparation. Compounds were prepared in MH2 media at a concentration of 5 mM and stored at 4° C. For testing, solutions of 128 μM were prepared in MH2, for tests against E. faecalis a solution of 512 μM was prepared. Out of these working solutions, 400 μL was transferred to wells in the first column of 96-well deep well plates. Each compound was transferred in triplicate. Plates were previously filled with 200 μL of MH2 media in all wells except for the wells in the first column. After compound and antibiotic addition, the compounds were serial two-fold diluted by transferring 200 μL from the first to the second column, then from the second to the third column and so on. Finally, 200 μL was removed from the last column.
Inoculum preparation. Microorganisms used were all revived from 15% glycerol storage in Croinstant tubes at −28° C. by plating them on blood agar plates. A. baumanni, and E. cloacae were grown aerobically at 37° C., E. faecalis was grown microaerophilically at 37° C., and K. pneumoniae was grown aerobically at 37° C. Plates were stored at 4° C. for up to two weeks, after which new plates were prepared from −28° C. A single colony was inoculated in MH2 media and grown at 37° C. and 200 rpm to an optical density (measured by UV/Vis spectroscopy) of 0.6-0.8 at 600 nm. Out of these suspensions, actual inoculums were prepared by diluting them to an optical density of 0.1 in MH2 media. From these inoculums, 200 μL was transferred to each well, resulting in a final compound concentration range of 64 μM-31.3 nM for, K. pneumoniae, A. baumanni, and E. cloacae, and 256 μM-125 nM for E. faecalis. Plates inoculated with E. faecalis were placed inside a GasPak™ Container System with GasPak™ Campy Container System sachets. All plates were incubated at 200 rpm for 18 h under the microorganism culturing conditions mentioned above.
MIC determination. After 18 h of growth, 200 μL was transferred to a 96-well F-bottom plate. The optical density was determined by a plate reader at 600 nm, with 10 s shaking before reading. Triplicate measurements were averaged, and a growth curve was plotted in Excel. The first column in which the growth reached half the value of maximum growth was determined as the MIC50 value for that particular compound.
MIC50. The MIC50 of a compound was assigned at which the bacterial growth reached half the value of maximum growth.
On the technique in general: Dilution methods test growth across graded concentrations, often in twofold steps.
In the case of `N=C(N)NC1[C@@H](O)C(OC2[C@@H](F)[C@H](O[C@H]3OC(CN)[C@@H](O)[C@H](O)C3N)C(N)C[C@H]2NC(=O)[C@@H](O)CCN)O[C@H](CO)[C@H]1O` (stereo partly drawn) [ABX4004, 3′epi-KanaB-AHB-F-Gua], the “MIC50” value was 1 µM (≈ 0.629 µg/mL).
Still for that read-out and setting: the same measure for `NCC[C@H](O)C(=O)N[C@@H]1CC(N)[C@@H](O[C@H]2OC(CN)[C@@H](O)[C@@H](O)C2N)[C@H](O)C1OC1O[C@H](CO)[C@@H](O)C(N)[C@H]1O` (stereo partly drawn) [ABX4002, 3′Epi-KanaB-AHB]: 4 µM (≈ 2.34 µg/mL); for `N=C(N)NC1[C@@H](O)C(OC2[C@@H](O)[C@H](O[C@H]3OC(CN)[C@@H](O)CC3N)C(N)C[C@H]2NC(=O)[C@@H](O)CCN)O[C@H](CO)[C@H]1O` (stereo partly shown) [ABX5005, Tobra-AHB-Gua]: 1 µM (≈ 0.611 µg/mL); for `NCCC(O)C(=O)NC1CC(N)C(OC2OC(CN)C(O)C(O)C2N)C(O)C1OC1OC(CO)C(O)C(N)C1O` (stereo not shown) [ABX4001, KanaB-AHB]: 2 µM (≈ 1.17 µg/mL).
Same read-out and setting: the same measure for `N=C(N)NC1[C@@H](O)C(OC2[C@@H](O)[C@H](O[C@H]3OC(CN)[C@@H](O)[C@H](O)C3N)C(N)C[C@H]2NC(=O)[C@@H](O)CCN)O[C@H](CO)[C@H]1O` (stereo partly shown) [ABX4009, KanaB-AHB-Gua]: 2 µM (≈ 1.25 µg/mL); for `NCC[C@H](O)C(=O)N[C@@H]1C[C@H](N)[C@@H](O[C@H]2O[C@H](CN)[C@@H](O)[C@@H](O)[C@H]2O)[C@H](O)[C@H]1O[C@H]1O[C@H](CO)[C@@H](O)[C@H](N)[C@H]1O` [ABX3002, 3′Epi-KanaA-AHB]: 16 µM (≈ 9.37 µg/mL).
Still for that read-out and setting: the same measure for `N=C(N)NC1[C@@H](O)C(OC2[C@@H](F)[C@H](O[C@H]3OC(CN)[C@@H](O)[C@H](O)C3N)C(N)C[C@H]2NC(=O)[C@@H](O)CCN)O[C@H](CO)[C@H]1O` (stereo partly shown) [ABX4006, KanaB-AHB-F-Gua]: 0.25 to 0.5 µM.
Consider `NCCC(O)C(=O)NC1CC(N)C(OC2OC(CN)C(O)C(O)C2O)C(F)C1OC1OC(CO)C(O)C(N)C1O` (stereo not drawn) [ABX3005, 3′Epi-KanaA-AHB-F], for which the “MIC50” value was determined as 4 µM (≈ 2.35 µg/mL).
The same measure, in the same setting: the same measure for `NCC[C@H](O)C(=O)N[C@@H]1CC(N)[C@@H](O[C@H]2OC(CN)[C@@H](O)CC2N)[C@H](F)C1OC1O[C@H](CO)[C@@H](O)C(N)[C@H]1O` (stereo partly shown) [ABX5024, Tobra-AHB-F]: 1 µM (≈ 0.571 µg/mL).
For `NCCC(O)C(=O)NC1CC(N)C(OC2OC(CN)C(O)C(O)C2N)C(F)C1OC1OC(CO)C(O)C(N)C1O` (stereo not shown) [ABX4007, KanaB-AHB-F], the “MIC50” value fell in the range of 1 to 2 µM.
On the same count and under the same terms, the same measure for `NCC[C@H](O)C(=O)N[C@@H]1CC(N)[C@@H](O[C@H]2OC(CN)[C@@H](O)CC2N)[C@H](O)C1OC1O[C@H](CO)[C@@H](O)C(N)[C@H]1O` (stereo partly shown) [ABX5004, Tobra-AHB]: 1 µM (≈ 0.569 µg/mL); for `NCC[C@H](O)C(=O)N[C@@H]1CC(N)[C@@H](O[C@H]2OC(CN)[C@@H](O)[C@@H](O)C2N)[C@H](F)C1OC1O[C@H](CO)[C@@H](O)C(N)[C@H]1O` (stereo partly drawn) [ABX4003, 3′Epi-KanaB-AHB-F]: 4 µM (≈ 2.35 µg/mL).
For `N=C(N)N[C@@H]1[C@@H](O)[C@@H](O[C@@H]2[C@@H](O)[C@H](O[C@H]3O[C@H](CN)[C@@H](O)[C@@H](O)[C@H]3N)[C@@H](N)C[C@H]2NC(=O)[C@@H](O)CCN)O[C@H](CO)[C@H]1O` [ABX4005, 3′Epi-KanaB-AHB-Gua], the “MIC50” value was in the range of 4 to 8 µM.

The same test, now with this note: Enterobacter cloacae, E. Cloacae clinical isolate; read-out: MIC 50.
With `N=C(NCCO)NC1[C@@H](O)C(OC2[C@@H](F)[C@H](O[C@H]3OC(CN)[C@@H](O)CC3N)C(N)C[C@H]2NC(=O)[C@@H](O)CCN)O[C@H](CO)[C@H]1O` (stereo partly shown) [ABX5029, Tobra-AHB-F-Gua 2-hydroxy-ethyl], the MIC50 came out at 1 µM (≈ 0.657 µg/mL).
The same measure, in the same setting: the same measure for `N=C(NCC1CCCO1)NC1[C@@H](O)C(OC2[C@@H](F)[C@H](O[C@H]3OC(CN)[C@@H](O)CC3N)C(N)C[C@H]2NC(=O)[C@@H](O)CCN)O[C@H](CO)[C@H]1O` (stereo partly shown) [ABX5046, Tobra-AHB-F-Gua tetrahydrofuran-2-yl methyl]: 1 µM (≈ 0.697 µg/mL); for `N=C(NCc1ccncc1)NC1[C@@H](O)C(OC2[C@@H](F)[C@H](O[C@H]3OC(CN)[C@@H](O)CC3N)C(N)C[C@H]2NC(=O)[C@@H](O)CCN)O[C@H](CO)[C@H]1O` (stereo partly shown) [ABX5048, Tobra-AHB-F-Gua pyridin-4-yl methyl]: 1 µM (≈ 0.704 µg/mL); for `N=C(NCC1CC1)NC1[C@@H](O)C(OC2[C@@H](F)[C@H](O[C@H]3OC(CN)[C@@H](O)CC3N)C(N)C[C@H]2NC(=O)[C@@H](O)CCN)O[C@H](CO)[C@H]1O` (stereo partly shown) [ABX5027, Tobra-AHB-F-Gua cyclopropylmethyl]: 0.5 µM (≈ 0.333 µg/mL).
Take `N=C(N)NC1C(O)[C@@H](CO)OC(OC2C(F)[C@H](O[C@H]3OC(CN)[C@@H](O)CC3N)C(N)C[C@H]2NC(=O)[C@@H](O)CCN)[C@@H]1O` (stereo partly shown) [ABX5006, Tobra-AHB-F-Gua]: the MIC50 fell in the range of 0.25 to 0.5 µM (≈ 0.153 to 0.306 µg/mL).
Same read-out and setting: the same measure for `N=C(NC[C@@H]1CCCN1)NC1[C@@H](O)C(OC2[C@@H](F)[C@H](O[C@H]3OC(CN)[C@@H](O)CC3N)C(N)C[C@H]2NC(=O)[C@@H](O)CCN)O[C@H](CO)[C@H]1O` (stereo partly drawn) [ABX5026, Tobra-AHB-F-Gua (S) pyrrolidine-2-yl-methyl]: 0.25 µM (≈ 0.174 µg/mL); for `N=C(NCc1cnc[nH]1)NC1[C@@H](O)C(OC2[C@@H](F)[C@H](O[C@H]3OC(CN)[C@@H](O)CC3N)C(N)C[C@H]2NC(=O)[C@@H](O)CCN)O[C@H](CO)[C@H]1O` (stereo partly shown) [ABX5050, Tobra-AHB-F-Gua imidazol-5-yl methyl]: 1 to 2 µM (≈ 0.693 to 1.39 µg/mL).
Consider `N=C(NC[C@@H]1CCNC1)NC1[C@@H](O)C(OC2[C@@H](F)[C@H](O[C@H]3OC(CN)[C@@H](O)CC3N)C(N)C[C@H]2NC(=O)[C@@H](O)CCN)O[C@H](CO)[C@H]1O` (stereo partly drawn) [ABX5039, Tobra-AHB-F-Gua (R) pyrrolidine-3-ylmethyl], for which the MIC50 came to 0.25 µM (≈ 0.174 µg/mL).
Still for that read-out and setting: the same measure for `N=C(NC[C@H]1CNCCO1)NC1[C@@H](O)C(OC2[C@@H](F)[C@H](O[C@H]3OC(CN)[C@@H](O)CC3N)C(N)C[C@H]2NC(=O)[C@@H](O)CCN)O[C@H](CO)[C@H]1O` (stereo partly drawn) [ABX5043, Tobra-AHB-F-Gua (R) morpholin-2-yl methyl]: 0.25 µM (≈ 0.178 µg/mL); for `N=C(NC[C@@H]1CNCCO1)NC1[C@@H](O)C(OC2[C@@H](F)[C@H](O[C@H]3OC(CN)[C@@H](O)CC3N)C(N)C[C@H]2NC(=O)[C@@H](O)CCN)O[C@H](CO)[C@H]1O` (stereo partly drawn) [ABX5040, Tobra-AHB-F-Gua (S) morpholin-2-yl methyl]: 0.25 µM (≈ 0.178 µg/mL); for `NCC[C@H](O)C(=O)N[C@@H]1C[C@H](N)[C@@H](O[C@H]2O[C@H](CN)[C@@H](O)[C@H](O)[C@H]2O)[C@H](O)[C@H]1O[C@H]1O[C@H](CO)[C@@H](O)[C@H](N)[C@H]1O` [Amikacin, amikacin, reference compound]: 2 µM (≈ 1.17 µg/mL).
The same measure, in the same setting: the same measure for `N=C(NC[C@H]1CCNC1)NC1[C@@H](O)C(OC2[C@@H](F)[C@H](O[C@H]3OC(CN)[C@@H](O)CC3N)C(N)C[C@H]2NC(=O)[C@@H](O)CCN)O[C@H](CO)[C@H]1O` (stereo partly drawn) [ABX5042, Tobra-AHB-F-Gua (S) pyrrolidine-3-ylmethyl]: 0.25 µM (≈ 0.174 µg/mL); for `N=C(NCCCO)NC1[C@@H](O)C(OC2[C@@H](F)[C@H](O[C@H]3OC(CN)[C@@H](O)CC3N)C(N)C[C@H]2NC(=O)[C@@H](O)CCN)O[C@H](CO)[C@H]1O` (stereo partly shown) [ABX5041, Tobra-AHB-F-Gua 3-hydroxy-propyl]: 1 µM (≈ 0.671 µg/mL); for `N=C(N)NC1[C@@H](O)C(OC2[C@@H](F)[C@H](O[C@H]3OC(CN)[C@@H](O)[C@H](O)C3O)C(N)C[C@H]2NC(=O)[C@@H](O)CCN)O[C@H](CO)[C@H]1O` (stereo partly drawn) [ABX3003, 3′epi-KanaA-AHB-F-Gua]: 1 to 2 µM (≈ 0.63 to 1.26 µg/mL).
Same read-out and setting: the same measure for `N=C(N)NC1[C@@H](O)C(OC2[C@@H](F)[C@H](O[C@H]3OC(CNCCO)[C@@H](O)CC3N)C(N)C[C@H]2NC(=O)[C@@H](O)CCN)O[C@H](CO)[C@H]1O` (stereo partly shown) [ABX5045, 6N-2-hydroxy-ethyl-Tobra-AHB-F-Gua]: 1 µM (≈ 0.657 µg/mL).

The values are drawn from patent US20220127297A1, “Novel Antibacterial 3"-Derivatives Of 4,6-Disubstituted 2,5-Dideoxystreptamine Aminoglycoside Antibiotics” (AGILeBiotics B.V., priority 2018, published 2022).
